SMILES strings stand for the structures.

For test [1], the target named is T1, 11-β-HSD1 (Homo sapiens, UniProt P28845).
T1 construct: assay medium containing 12 ng/mL hTNFα to induce expression of 11-β-HSD1; endogenous in cells; host or cells: primary human aortic smooth muscle cells (AoSMC), induced with hTNFα
Description: Human aortic smooth muscle cell assay. The note with it: primary human AoSMC, hTNFα-induced 11-β-HSD1, cortisol immunoassay. It counts as cell-based. As for the experimental part:
Human Aortic Smooth Muscle Cell Assay
Primary human aortic smooth muscle cells (AoSMC) are cultured in 5% FBS growth medium to a passage number of 6, then pelleted by centrifugation and resuspended at a density of 9×10^4 cells/mL in 0.5% FBS assay medium containing 12 ng/mL hTNFα to induce expression of 11-β-HSD1. Cells are seeded into 96-well tissue culture assay plates at 100 μL/well (9×10^3 cells/well) and incubated for 48 hours at 37° C., 5% CO2. Following induction, cells are incubated for 4 hours at 37° C., 5% CO2 in assay medium containing test compounds then treated with 10 μL/well of 10 μM cortisone solubilized in assay medium, and incubated for 16 hours at 37° C., 5% CO2. Medium from each well is transferred to a plate for subsequent analysis of cortisol using a competitive fluorescence resonance time resolved immunoassay. In solution, an allophycocyanin (APC)-cortisol conjugate and free cortisol analyte compete for binding to a mouse anti-cortisol antibody/Europium (Eu)-anti mouse IgG complex. Higher levels of free cortisol result in diminishing energy transfer from the Europium-IgG to the APC-cortisol complex resulting in less APC fluorescence. Fluorescent intensities for Europium and APC are measured using a LJL Analyst AD. Europium and APC excitation is measured using 360 nm excitation and 615 nm and 650 nm emission filters respectively. Time resolved parameters for Europuium were 1000 μs integration time with a 200 μs delay. APC parameters are set at 150 μs integration time with a 50 μs delay. Fluorescent intensities measured for APC are modified by dividing by the Eu fluorescence (APC/Eu). This ratio is then used to determine the unknown cortisol concentration by interpolation using a cortisol standard curve fitted with a 4-parameter logistic equation. These concentrations are then used to determine compound activity by plotting concentration versus % inhibition, fitting with a 4-parameter curve and reporting the IC50.

The test system of test [2] is cortisone conversion. Description: Acute in vivo cortisone conversion assay. To be noted: Mus musculus; male C57BL/6 mice, oral dose 10 mg/kg, cortisone challenge 16 hours post dose, serum cortisol; read-out: % Inhibition after 16 hours (dose of 10 (mg/kg)). The method, then: Acute In Vivo Cortisone Conversion Assay
In general, compounds are dosed orally into mice, the mice are challenged with a subcutaneous injection of cortisone at a set timepoint after compound injection, and the blood of each animal is collected some time later. Separated serum is then isolated and analyzed for levels of cortisone and cortisol by LC-MS/MS, followed by calculation of mean cortisol and percent inhibition of each dosing group. Specifically, male C57BL/6 mice are obtained from Harlan Sprague Dawley at average weight of 25 grams. Exact weights are taken upon arrival and the mice randomized into groups of similar weights. Compounds are prepared in 1% w-w HEC, 0.25% w-w polysorbate 80, 0.05% w-w Dow Corning antifoam #1510-US at various doses based on assumed average weight of 25 grams. Compounds are dosed orally, 200 μl per animal, followed by a subcutaneous dose, 200 μl per animal, of 30 mg/kg cortisone at 1 to 24 hours post compound dose. At 10 minutes post cortisone challenge, each animal is euthanized for 1 minute in a CO2 chamber, followed by blood collection via cardiac puncture into serum separator tubes. Once fully clotted, tubes are spun at 2500×g, 4° C. for 15 minutes, the serum transferred to wells of 96-well plates (Corning Inc, Costar #4410, cluster tubes, 1.2 ml, polypropylene), and the plates are frozen at −20° C. until analysis by LC-MS/MS. For analysis, serum samples are thawed and the proteins are precipitated by the addition of acetonitrile containing d4-cortisol internal standard. Samples are vortex mixed and centrifuged. The supernatant is removed and dried under a stream of warm nitrogen. Extracts are reconstituted in methanol/water (1:1) and injected onto the LC-MS/MS system. The levels of cortisone and cortisol are assayed by selective reaction monitoring mode following positive ACPI ionization on a triple quadrupole mass spectrophotometer.

For test [3], the target named is T2, 11-βHSD2 enzyme (Homo sapiens, UniProt P80365).
T2 sequence (P80365 1-405): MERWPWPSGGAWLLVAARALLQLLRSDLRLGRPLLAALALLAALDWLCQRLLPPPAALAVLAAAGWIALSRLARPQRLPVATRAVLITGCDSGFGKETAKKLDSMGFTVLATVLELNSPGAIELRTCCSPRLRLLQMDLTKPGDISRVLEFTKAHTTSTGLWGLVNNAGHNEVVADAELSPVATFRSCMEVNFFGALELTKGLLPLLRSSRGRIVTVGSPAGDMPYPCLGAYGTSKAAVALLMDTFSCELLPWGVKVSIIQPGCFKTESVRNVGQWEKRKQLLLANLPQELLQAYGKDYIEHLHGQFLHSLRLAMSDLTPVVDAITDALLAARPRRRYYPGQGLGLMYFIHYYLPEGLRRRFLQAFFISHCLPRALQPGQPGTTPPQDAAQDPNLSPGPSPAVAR
The experiment in a line: Selectivity against 11-βHSD2 in an enzyme assay similar to the 11β-HSD type 1 enzyme assay. To be noted: 11-βHSD1 versus 11-βHSD2 enzyme. It counts as biochemical. As for the experimental part:
11β-HSD Type 1 Enzyme Assay
Human 11β-HSD type 1 activity is measured by assaying NADPH production by fluorescence assay. Solid compounds are dissolved in DMSO to a concentration of 10 mM. Twenty microliters of each are then transferred to a column of a 96-well polypropylene Nunc plate where they are further diluted 50-fold followed by subsequent two-fold titration, ten times across the plate with additional DMSO using a Tecan Genesis 200 automated system. Plates are then transferred to a Tecan Freedom 200 system with an attached Tecan Temo 96-well head and an Ultra 384 plate reader. Reagents are supplied in 96-well polypropylene Nunc plates and are dispensed individually into black 96-well Molecular Devices High Efficiency assay plates (40 μL/well capacity) in the following fashion: 9 μL/well of substrate (2.22 mM NADP, 55.5 μM Cortisol, 10 mM Tris, 0.25% Prionex, 0.1% Triton X100), 3 μL/well of water to compound wells or 3 μL to control and standard wells, 6 μL/well recombinant human 11β-HSD type 1 enzyme, 2 μL/well of compound dilutions. […] Plates are then shaken once more for 15 seconds then placed into an Ultra 384 microplate reader (355EX/460EM) for detection of NADPH fluorescence. […]

T1 sequence (P28845 whole entry): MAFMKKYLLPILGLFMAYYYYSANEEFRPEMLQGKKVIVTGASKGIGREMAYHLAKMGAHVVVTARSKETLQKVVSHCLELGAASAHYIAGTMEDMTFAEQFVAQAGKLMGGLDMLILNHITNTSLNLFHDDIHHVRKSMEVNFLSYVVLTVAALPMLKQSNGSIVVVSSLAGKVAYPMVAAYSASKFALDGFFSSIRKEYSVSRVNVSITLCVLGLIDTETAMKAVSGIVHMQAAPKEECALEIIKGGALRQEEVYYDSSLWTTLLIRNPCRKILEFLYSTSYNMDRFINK

As a reminder, the IC50 is the concentration that gives 50% inhibition. Low readings indicate higher potency, high ones lower potency. On to `O=C(c1ccc(-c2cc(Cl)c(C[C@@H]3CCN(N4CCC(O)CC4)C3=O)c(Cl)c2)cc1)N1CCC(F)(F)CC1` [Example 8, (R)-3-[3,5-Dichloro-4′-(4,4-difluoro-piperidine-1-carbonyl)-biphenyl-4-ylmethyl]-1-(4-hydroxy-piperidin-1-yl)-pyrrolidin-2-one], for which, in test [1], the IC50 came out at 43 nM. Further, the inhibition at 10 mg/kg in test [2] worked out at 94%.
In test [1], `O=C1[C@H](Cc2c(Cl)cc(-c3ccc(F)cc3)cc2Cl)CCN1N1CCC(O)CC1` [Example 6, (R)-3-(3,5-Dichloro-4′-fluoro-biphenyl-4-ylmethyl)-1-(4-hydroxy-piperidin-1-yl)-pyrrolidin-2-one Trifluoro Acetate] registered a half-inhibitory concentration (IC50) of 5.7 nM. For the same molecule, the inhibition at 10 mg/kg in test [2] stood at 55%.
In turn, `O=C(c1ccc(-c2cc(Cl)c(C[C@@H]3CCN(N4CCOCC4)C3=O)c(Cl)c2)cc1)N1CCC(C(F)(F)F)CC1` [Example 3, (R)-3-[3,5-Dichloro-4′-(4-trifluoromethyl-piperidine-1-carbonyl)-biphenyl-4-ylmethyl]-1-morpholin-4-yl-pyrrolidin-2-one] had an IC50 in test [1] of 67 nM. In addition, the inhibition at 10 mg/kg in test [2] was 82%.
As to `O=C(c1ccc(-c2cc(Cl)c(C[C@@H]3CCN(N4CCC(O)CC4)C3=O)c(Cl)c2)cc1)N1CCC(C(F)(F)F)CC1` [Example 7, (R)-3-[3,5-Dichloro-4′-(4-trifluoromethyl-piperidine-1-carbonyl)-biphenyl-4-ylmethyl]-1-(4-hydroxy-piperidin-1-yl)-pyrrolidin-2-one], inhibition in test [1] was half-maximal at 14.3 nM (IC50). The inhibition at 10 mg/kg in test [2] worked out at 98%. In addition, the “fold greater inhibition of 11-βHSD1 enzyme as compared to the inhibition of 11-βHSD2” value in test [3] was 145 fold.

Values taken from US8153807B2, “Inhibitors of 11-beta-hydroxysteroid dehydrogenase 1” (Eli Lilly and Company, priority 2006, dated 2012).
